Laboratory results from paper PMC11847541, “Liver fatty acid binding protein FABP1 transfers substrates to cytochrome P450 4A11 for catalysis” (The Journal of Biological Chemistry, 2025).
Where two headings read alike, the source gives them in different places. Each block holds one compound with its values, some of them ahead of it.

Legend:
[1] = biological target: FABP3; set-up: method as in PMID 11170430; conditions: human heart FABP (FABP3); cited from earlier work
[2] = biological target: T1, FABP1 (Homo sapiens, UniProt P07148); assay: DAUDA displacement fluorescence titrations of DAUDA–FABP1 with fatty acids, fit in KinTek Explorer; format: binding
T1 construct: GST (N, cleaved yes); made in house; host or cells: Escherichia coli DH5α
T1 sequence (P07148 with tags, fused parts or gaps): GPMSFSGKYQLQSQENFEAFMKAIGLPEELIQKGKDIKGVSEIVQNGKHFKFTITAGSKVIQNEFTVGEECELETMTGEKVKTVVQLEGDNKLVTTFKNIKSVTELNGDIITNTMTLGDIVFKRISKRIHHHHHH
From the text: The FABP–DAUDA system was used to screen saturated fatty acids (C12 to C18) for binding to FABP, and the Kd values were estimated in competition with the fluorophore (using its known Kd) with the kinetic modeling software KinTek Explorer. The general model is shown in Fig. 5A, where the substrate is competed against the fluorescent DAUDA–FABP1 complex for binding, yielding a ternary DAUDA–FABP1–substrate complex that is accompanied by an attenuation in fluorescence.
Figure 5 Fluorescence titrations of DAUDA–FABP1 with fatty acids (“forward” titrations).A, model of all binding equilibria accounted for in the DAUDA displacement assays. In the fluorescence assays (λex = 335 nm), DAUDA (D) binds to FABP1 (F) to form a fluorescent (indicated with yellow flash) complex (FD), with which a lipid (S) is then competed against for binding. The binding of S attenuates the fluorescence (denoted with a smaller yellow flash) and forms a ternary complex (FDS). High concentrations of S may completely displace D to form FSS, a spectroscopically silent complex. Using this method, fluorescence titrations were carried out with the fatty acids (B) laurate, (C) myristate, (D) palmitate, (E) 16-hydroxypalmitate, and (F) stearate. Fluorescence at the emission maximum (482 nm) was monitored (as in Fig. 4) and normalized to the starting fluorescence (i.e., the FD complex prior to the addition of S). Each data point corresponds to one independent replicate. DAUDA, 11-dansylaminoundecanoic acid; FABP1, fatty acid binding protein.
For the titrations with lipids, solutions of FABP1 (0.5 μM) and DAUDA (0.25 μM) were prepared such that the fluorescent species was not present in excess ([75]). A baseline was recorded with phosphate buffer, and a starting (basis) spectrum was recorded of the FABP–DAUDA complex (1 ml). The lipid solutions were gradually added to the cuvette with gentle mixing (pipetting up and down ∼7× with a pipette tip), and spectra were recorded (Fig. S12A). Control titrations were also performed the same day with solvent alone (Fig. S12B) as a normalizing factor for the lipid titrations as fluorescence attenuation was also observed to a much lesser degree as a solvent effect (Fig. S12C, D). […] The data were processed such that within the lipid titration and the solvent titration, the F482 values were normalized to the starting value (the initial FABP1–DAUDA complex with nothing added, set to 100%). The relative fluorescence of the lipid titration was then normalized to the relative fluorescence of the solvent titration to adjust for fluorescence attenuation observed in the solvent titration (presumably from altering the fluorophore environment). Thus, the data were processed according to y=(F482/F482(initial))lipid/(F482/F482(initial))solvent , and the resulting values were plotted as a function of lipid concentration (Fig. S12E). The curve was imported into KinTek Explorer ([76]) and was fit to a kinetic model (Fig. S13) to determine the Kd values (Table 1). Within the KinTek software, all fluorescent species required fluorescence scaling factors to convert signal to concentration. Scaling factors for the FABP–DAUDA complex, FABP–DAUDA–lipid complex, and DAUDA alone were 460, 92, and 8, respectively.
Figure S12. Data processing for FABP1 titration with palmitate. Fluorescence spectrum of increasing additions of (A) palmitate (0-2 µM, added in C2H5OH) and (B) C2H5OH to a mixture of DAUDA (0.25 µM) and FABP1 (0.5 µM), performed as described in the Experimental Methods (see “Titrations of FABP1 with lipids, DAUDA”). C, fluorescence values at 482 nm (F482) from the titrations presented in parts A and B are normalized to the starting values (DAUDA-FABP1 complex, no volume added). Data are reported as a function of volume of titrant added to the cuvette (black, C2H5OH alone; red, palmitate in C2H5OH). […]

[3] = biological target: T1, FABP1; set-up: method as in PMID 10852718; conditions: ADIFAB system; cited from earlier work
[4] = biological target: T1, FABP1; conditions: human FABP1, fluorescence displacement assay; read-out: Kd; cited from earlier work
[5] = biological target: FABP1; set-up: method as in PMID 8940102; conditions: rat protein, cited from earlier work
[6] = biological target: FABP1; set-up: method as in PMID 8541331; conditions: bovine protein, cited from earlier work
[7] = lipid binding to DAUDA-bound FABP1 (DAUDA displacement), read-out: Kd, FD + S ↔ FDS
[8] = lipid binding to apo-FABP1, estimated via kinetic modeling, read-out: Kd, F + S ↔ FS
[9] = lipid binding to ternary complex FDS (full displacement of DAUDA), low-affinity site, read-out: Kd, FDS + S ↔ FSS + D
[10] = high-affinity site, read-out: Kd,1
[11] = low-affinity site, read-out: Kd,2

Compound: O=C(O)CCC/C=C\C/C=C\C/C=C\C/C=C\CCCCCO [20-HETE, 20-hydroxyeicosatetraenoic acid]
Kd [1]: ~0.44 µM

% Fluorescence ([2]; lipid 1 µM, FABP1 0.5 µM, DAUDA 0.25 µM, F482 normalized): 94.95% | % Fluorescence ([2]; lipid 2 µM, FABP1 0.5 µM, DAUDA 0.25 µM, F482 normalized): 89.77% | % Fluorescence ([2]; lipid 3.5 µM, FABP1 0.5 µM, DAUDA 0.25 µM, F482 normalized): 89.03% | % Fluorescence ([2]; lipid 5 µM, FABP1 0.5 µM, DAUDA 0.25 µM, F482 normalized): 85.89% | % Fluorescence ([2]; lipid 7.5 µM, FABP1 0.5 µM, DAUDA 0.25 µM, F482 normalized): 85.69% | % Fluorescence ([2]; lipid 10 µM, FABP1 0.5 µM, DAUDA 0.25 µM, F482 normalized): 75.3% | % Fluorescence ([2]; lipid 20 µM, FABP1 0.5 µM, DAUDA 0.25 µM, F482 normalized): 57.47% | % Fluorescence ([2]; lipid 35 µM, FABP1 0.5 µM, DAUDA 0.25 µM, F482 normalized): 47.27% | % Fluorescence ([2]; lipid 50 µM, FABP1 0.5 µM, DAUDA 0.25 µM, F482 normalized): 41.27% | % Fluorescence ([2]; lipid 75 µM, FABP1 0.5 µM, DAUDA 0.25 µM, F482 normalized): 35.15% | % Fluorescence ([2]; lipid 100 µM, FABP1 0.5 µM, DAUDA 0.25 µM, F482 normalized): 31.33% | % Fluorescence ([2]; lipid 125 µM, FABP1 0.5 µM, DAUDA 0.25 µM, F482 normalized): 28.58% | % Fluorescence ([2]; lipid 150 µM, FABP1 0.5 µM, DAUDA 0.25 µM, F482 normalized): 29.65% | % Fluorescence ([2]; lipid 200 µM, FABP1 0.5 µM, DAUDA 0.25 µM, F482 normalized): 27.61% | % Fluorescence ([2]; lipid 300 µM, FABP1 0.5 µM, DAUDA 0.25 µM, F482 normalized): 25.74% | % Fluorescence ([2]; lipid 400 µM, FABP1 0.5 µM, DAUDA 0.25 µM, F482 normalized): 23.15% | koff, F + S ↔ FS ([2]; lipid (S) binding to apo-FABP1 (F), kinetic modeling, on-rate 9.0 × 10^7 M^−1 s^−1): 2700 s⁻¹ | Kd [2, 7]: 18 µM | koff, FD + S ↔ FDS ([2]; lipid binding to DAUDA-bound FABP1 (FD), on-rate 2.3 × 10^7 M^−1 s^−1): 410 s⁻¹ | Kd [2, 8]: 30 µM | Kd [2, 9]: > 1000 µM
Compound: CCCCCCCCCCCC(=O)O [Laurate (C12), laurate]

Compound: CCCCCCCCCCCCCC(=O)O [Myristate (C14), myristate]
Kd [2, 7]: 0.86 µM | Kd [2, 8]: 2.6 µM | Kd [2, 9]: 43 µM | remaining activity at 0.01 µM ([2]; read-out: % Fluorescence): 98.3% | remaining activity at 0.03 µM ([2]; read-out: % Fluorescence): 99.1% | remaining activity at 0.06 µM ([2]; read-out: % Fluorescence): 98.2% | remaining activity at 0.1 µM ([2]; read-out: % Fluorescence): 97.3% | remaining activity at 0.3 µM ([2]; read-out: % Fluorescence): 92.9% | remaining activity at 0.6 µM ([2]; read-out: % Fluorescence): 81% | remaining activity at 1 µM ([2]; read-out: % Fluorescence): 71.9% | remaining activity at 3 µM ([2]; read-out: % Fluorescence): 42.2% | remaining activity at 6 µM ([2]; read-out: % Fluorescence): 25.9% | remaining activity at 10 µM ([2]; read-out: % Fluorescence): 18.2% | remaining activity at 30 µM ([2]; read-out: % Fluorescence): 13.1% | koff ([2]; read-out: koff, F + S ↔ FS): 240 s⁻¹ | koff ([2]; read-out: koff, FD + S ↔ FDS): 20 s⁻¹ | koff ([2]; read-out: koff, FDS + S ↔ FSS + D): 980 s⁻¹

remaining activity at 0.01 µM ([2]; lipid 0.01 µM, FABP1 0.5 µM, DAUDA 0.25 µM, F482 normalized, read-out: % Fluorescence): 92.3% | remaining activity at 0.025 µM ([2]; lipid 0.025 µM, FABP1 0.5 µM, DAUDA 0.25 µM, F482 normalized): 92.5% | remaining activity at 0.05 µM ([2]; lipid 0.05 µM, FABP1 0.5 µM, DAUDA 0.25 µM, F482 normalized): 87.6% | remaining activity at 0.075 µM ([2]; lipid 0.075 µM, FABP1 0.5 µM, DAUDA 0.25 µM, F482 normalized): 81.3% | remaining activity at 0.1 µM ([2]; lipid 0.1 µM, FABP1 0.5 µM, DAUDA 0.25 µM, F482 normalized, read-out: % Fluorescence): 78.3% | remaining activity at 0.15 µM ([2]; lipid 0.15 µM, FABP1 0.5 µM, DAUDA 0.25 µM, F482 normalized): 69.4% | remaining activity at 0.2 µM ([2]; lipid 0.2 µM, FABP1 0.5 µM, DAUDA 0.25 µM, F482 normalized): 61% | remaining activity at 0.25 µM ([2]; lipid 0.25 µM, FABP1 0.5 µM, DAUDA 0.25 µM, F482 normalized): 54.2% | remaining activity at 0.35 µM ([2]; lipid 0.35 µM, FABP1 0.5 µM, DAUDA 0.25 µM, F482 normalized): 44.4% | remaining activity at 0.45 µM ([2]; lipid 0.45 µM, FABP1 0.5 µM, DAUDA 0.25 µM, F482 normalized): 37.1% | remaining activity at 0.6 µM ([2]; lipid 0.6 µM, FABP1 0.5 µM, DAUDA 0.25 µM, F482 normalized, read-out: % Fluorescence): 31.3% | remaining activity at 0.9 µM ([2]; lipid 0.9 µM, FABP1 0.5 µM, DAUDA 0.25 µM, F482 normalized): 24.2% | remaining activity at 1.15 µM ([2]; lipid 1.15 µM, FABP1 0.5 µM, DAUDA 0.25 µM, F482 normalized): 24.1% | remaining activity at 1.4 µM ([2]; lipid 1.4 µM, FABP1 0.5 µM, DAUDA 0.25 µM, F482 normalized): 23.6% | remaining activity at 1.9 µM ([2]; lipid 1.9 µM, FABP1 0.5 µM, DAUDA 0.25 µM, F482 normalized): 23.3% | koff ([2]; lipid (S) binding to apo-FABP1 (F), kinetic modeling, on-rate 9.0 × 10^7 M^−1 s^−1, read-out: koff, F + S ↔ FS): 6.2 s⁻¹ | Kd [2, 7]: 0.021 µM | koff ([2]; lipid binding to DAUDA-bound FABP1 (FD), on-rate 2.3 × 10^7 M^−1 s^−1, read-out: koff, FD + S ↔ FDS): 0.48 s⁻¹ | Kd [2, 8]: 0.069 µM | Kd [2, 9]: 34 µM | koff ([2]; lipid binding to ternary complex FDS (full displacement of DAUDA), read-out: koff, FDS + S ↔ FSS + D): 770 s⁻¹
Compound: CCCCCCCCCCCCCCCCCC(=O)O [Stearate (C18), stearate]
Kd [3]: 0.023 µM | Kd [4]: 0.029 ± 0.002 µM

Compound: CCCCC/C=C\C/C=C\C/C=C\C/C=C\CCCC(=O)O [arachidonate]
Kd [1]: ~0.05 µM

Compound: CCCCC/C=C\C/C=C\CCCCCCCC(=O)O [linoleate]
Kd [5, 10]: ~0.01 µM | Kd [5, 11]: ~0.2 µM

Compound: CCCCCCCC/C=C\CCCCCCCC(=O)O [oleate]
Kd [6, 10]: 0.26 µM | Kd [6, 11]: > 5 µM
